Measurements taken from patent US20250179033A1 (priority 2021, published 2025).
Read-outs that look alike come from different tables or passages of the source.

Experiments:
Type in all cases: cell-based
TZM-bl cells = test: Toxicity assay in TZM-bl cells
Protocol: (§1) Compounds were serially diluted starting with 10 mM stocks in DMSO. DMSO concentrations were kept the same for all dilutions used within an assay (either 0.005% or 0.05% depending on highest concentration used). Duplicate 96-well plates were set up with 25 μL compound dilution, 25 μL virus, and 50 μL TZM-bl cells (2×10^5/mL) with DEAE-dextran and incubated at 37° C. 5% CO2 for 48 hr. All compounds were tested in triplicate, with single wells of efavirenz dilutions on each plate. All plates had 3-5 control wells without compound, 1 control well with no cells, and 1 control well with a highly toxic level of DMSO (9%). Inhibition assays were set up in clear tissue-culture treated plates with lysates moved to black assay plates or were set up in black tissue culture-treated plates. Medium was removed and the cells were lysed with Glo Lysis Buffer (Promega, Madison, Wisconsin, United States of America). Luciferase Assay System reagent (Promega, Madison, Wisconsin, United States of America) was added to cells and relative light units (RLU) was measured using an EnSpire instrument (PerkinElmer, Waltham, Massachusetts, United States of America). Toxicity assays were set up in clear tissue culture-treated plates. CellTiter-Blue Cell Viability Assay reagent (Promega) was added to the wells after 46 hr incubation, followed by 2 hr incubation. Sodium lauryl sulfate was added to 1.5% to stop the reaction and the plates were measured for fluorescence (560 nmEx/590 nmEm) using an EnSpire instrument (PerkinElmer, Waltham, Massachusetts, United States of America).

HIV-1 IIIB (wild-type) = test: HIV inhibition assay in TZM-bl cells, wild-type; conditions: Human immunodeficiency virus 1, IIIB, read-out: IC50 (TZM, WT)
Protocol: (§2) Cells and virus culture: TZM-bl cells (42), HIV-1 IIIB virus (43-45) and HIV-1 IIIB (A17 variant) virus (46) as well are the NNRTI resistant mutants (strain NL4-3) (47) were obtained from the NIH HIV Reagent Program. H9 [derivative of HuT 78]cells (ATCC® HTB176™) were obtained from the American Type Culture Collection (Manassas, Virginia, United States of America). These viruses were grown in H9 cells to high titer, which was tested using a HIV p24 (high sensitivity) The detection kit used was sold under the tradename ALPHALISA® Detection Kit (PerkinElmer, Waltham, Massachusetts, United States of America). The viruses were concentrated using Lenti-X Concentrator (Takara Bio USA, Inc., Mountain View, California, United States of America). Infections of TZM-bl cells with either virus was facilitated with 15 μg/mL DEAE-dextran.
as §1

[1] = system: HIV-1 IIIB A17 variant (Y181C/K103N); test: HIV inhibition assay in TZM-bl cells, A17 variant; conditions: Human immunodeficiency virus 1, IIIB, TZM-bl, read-out: IC50 (TZM, A17), Table 3, TZM-bl, ± SEM, minimum 6 replicates
Protocol: as §2, §1

[2] = Table 3, TZM-bl, ± SEM, minimum 6 replicates

Structure (SMILES) | Qualitative Cell Toxicity within inhibition range (TZM-bl cells; Table 3, TZM-bl) | IC50 (HIV-1 IIIB (wild-type)) | IC50 [1] | Qualitative Cell Toxicity within inhibition range (TZM-bl cells) | IC50 (HIV-1 IIIB (wild-type); [2])
N#Cc1ccc(Nc2nc(N)n(S(=O)(=O)c3ccc4ccccc4c3)n2)cc1Cl [Compound 3, 4-[[5-amino-1-(2-naphthylsulfonyl)-1,2,4-triazol-3-yl]amino]-2-chloro-benzonitrile] | None | 1.57 ± 0.19 nM | 573 ± 130 nM |  | 
Cc1cc(C#N)ccc1Nc1nc(N)n(S(=O)(=O)c2cccc3cc(C#N)ccc23)n1 [Compound 4, 5-[[5-amino-3-(4-cyano-2-methyl-anilino)-1,2,4-triazol-1-yl]sulfonyl]naphthalene-2-carbonitrile] |  |  | 287 ± 69.5 nM | None | 13.8 ± 2.64 nM
CC(C)(C)c1ccc(S(=O)(=O)n2nc(Nc3ccc(Cl)cc3)nc2N)cc1 [Compound 6, 1-(4-tert-butylphenyl)sulfonyl-N3-(4-chlorophenyl)-1,2,4-triazole-3,5-diamine] |  |  | 295 ± 56.5 nM | None | 70.2 ± 10.5 nM
Nc1nc(Nc2ccc(Cl)cc2)nn1S(=O)(=O)c1ccc(Br)cc1F [Compound 7, 1-(4-bromo-2-fluoro-phenyl)sulfonyl-N3-(4-chlorophenyl)-1,2,4-triazole-3,5-diamine] |  |  | 562 nM | None | 19.2 ± 2.83 nM
N#Cc1ccc(Nc2nc(N)n(S(=O)(=O)c3c(Cl)nc4sccn34)n2)cc1 [Compound 8, 4-[[5-amino-1-(6-chloroimidazo[2,1-b]thiazol-5-yl)sulfonyl-1,2,4-triazol-3-yl]amino]-benzonitrile] |  |  | 705 ± 1010 nM | None | 1.77 ± 0.327 nM
N#Cc1ccc(Nc2nc(N)n(S(=O)(=O)c3cccc(C#N)c3)n2)cc1 [Compound 9, 3-[[5-amino-3-(4-cyanoanilino)-1,2,4-triazol-1-yl]sulfonyl]benzonitrile] |  |  | 709 ± 331 nM | None | 105 ± 24.3 nM
N#C/C=C/c1ccc(Nc2nc(N)n(S(=O)(=O)c3cccc4cc(C#N)ccc34)n2)cc1 [Compound 10, 5-[[5-amino-3-[4-[(E)-2-cyanovinyl]anilino]-1,2,4-triazol-1-yl]sulfonyl]naphthalene-2-carbonitrile] |  |  | 215 ± 57.4 nM | None | 1.52 ± 0.307 nM
N#Cc1ccc(Nc2nc(N)n(S(=O)(=O)c3c(Cl)nc4sccn34)n2)cc1Cl [Compound 11, 4-[[5-amino-1-(6-chloroimidazo[2,1-b]thiazol-5-yl)sulfonyl-1,2,4-triazol-3-yl]amino]-2-chloro-benzonitrile] | Low | 0.98 ± 0.245 nM | 175 ± 178 nM |  | 
Cc1nc(C)c(S(=O)(=O)n2nc(Nc3ccc(C#N)c(Cl)c3)nc2N)s1 [Compound 12, 4-[[5-amino-1-(2,4-dimethylthiazol-5-yl)sulfonyl-1,2,4-triazol-3-yl]amino]-2-chloro-benzonitrile] | None | 0.879 ± 0.072 nM | 306 ± 107 nM |  | 
N#CCc1ccc(Nc2nc(N)n(S(=O)(=O)c3cccc4cc(C#N)ccc34)n2)cc1 [Compound 13, 5-[[5-amino-3-[4-(cyanomethyl)anilino]-1,2,4-triazol-1-yl]sulfonyl]naphthalene-2-carbonitrile] |  |  | 42.9 ± 34.7 nM | None | 0.277 ± 0.0367 nM
N#CCc1ccc2c(S(=O)(=O)n3nc(Nc4ccc(C#N)c(Cl)c4)nc3N)cccc2c1 [Compound 16, 4-[[5-amino-1-[[6-(cyanomethyl)-1-naphthyl]sulfonyl]-1,2,4-triazol-3-yl]amino]-2-chloro-benzonitrile] | None | 0.598 ± 0.105 nM | 153 ± 59.2 nM |  | 
Cc1nn(C)c(Cl)c1S(=O)(=O)n1nc(Nc2ccc(C#N)c(Cl)c2)nc1N [Compound 17, 4-[[5-amino-1-(5-chloro-1,3-dimethyl-pyrazol-4-yl)sulfonyl-1,2,4-triazol-3-yl]amino]-2-chloro-benzonitrile] | None | 0.305 ± 0.053 nM | 905 ± 392 nM |  | 
Nc1nc(Nc2ccc(Cl)c(Cl)c2)nn1S(=O)(=O)c1cccc2ccccc12 [Compound 22, N3-(3,4-dichlorophenyl)-1-(1-naphthylsulfonyl)-1,2,4-triazole-3,5-diamine] | None | 4.68 ± 0.572 nM | > 1000 nM |  | 
CN(C)c1cccc2c(S(=O)(=O)n3nc(Nc4ccc(Cl)cc4)nc3N)cccc12 [Compound 23, N3-(4-chlorophenyl)-1-[[5-(dimethylamino)-1-naphthyl]sulfonyl]-1,2,4-triazole-3,5-diamine] |  |  | > 1000 nM | None | 10.3 ± 2.01 nM
C=CC(=O)N(C)c1ccc(S(=O)(=O)n2nc(Nc3ccc(C#N)cc3)nc2N)cc1 [Compound 24, N-[4-[[5-amino-3-(4-cyanoanilino)-1,2,4-triazol-1-yl]sulfonyl]phenyl]-N-methyl-prop-2-enamide] |  |  |  | None | 7.88 ± 0.643 nM
Nc1nc(Nc2ccc(Cl)cc2)nn1S(=O)(=O)c1ccc2cc(Cl)ccc2c1 [Compound 25, 1-[(6-chloro-2-naphthyl)sulfonyl]-N3-(4-chlorophenyl)-1,2,4-triazole-3,5-diamine] |  |  |  | None | 4.54 ± 0.33 nM
C=CC(=O)Nc1cc(C)c(S(=O)(=O)n2nc(Nc3ccc(Cl)cc3)nc2N)c(C)c1 [Compound 26, N-[4-[[5-amino-3-(4-chloroanilino)-1,2,4-triazol-1-yl]sulfonyl]-3,5-dimethyl-phenyl]prop-2-enamide] |  |  |  | None | 5.78 ± 0.476 nM
Cc1cc(S(=O)(=O)n2nc(Nc3ccc(Cl)nc3)nc2N)c(C)cc1Cl [Compound 27, 1-(4-chloro-2,5-dimethyl-phenyl)sulfonyl-N3-(6-chloro-3-pyridyl)-1,2,4-triazole-3,5-diamine] |  |  | > 1000 nM | None | 34.3 ± 9.91 nM
Cn1cnc(S(=O)(=O)n2nc(Nc3ccc(Cl)cc3)nc2N)c1 [Compound 28, N3-(4-chlorophenyl)-1-(1-methylimidazol-4-yl)sulfonyl-1,2,4-triazole-3,5-diamine] |  |  |  | None | 83.7 ± 19.3 nM
Nc1nc(Nc2ccc(Cl)cc2)nn1S(=O)(=O)c1cnc(Cl)c(Br)c1 [Compound 29, 1-[(5-bromo-6-chloro-3-pyridyl)sulfonyl]-N3-(4-chlorophenyl)-1,2,4-triazole-3,5-diamine] |  |  |  | None | 14.3 ± 7.27 nM
Nc1nc(Nc2ccc(Cl)cc2)nn1S(=O)(=O)c1ccc(-c2ccc(F)cc2)cc1 [Compound 30, N3-(4-chlorophenyl)-1-[4-(4-fluorophenyl)phenyl]sulfonyl-1,2,4-triazole-3,5-diamine] |  |  |  | None | 21.5 ± 4.42 nM
Cc1cc(C)c(Nc2nc(N)n(S(=O)(=O)c3ccc(Br)c(C)c3)n2)c(C)c1 [Compound 31, 1-(4-bromo-3-methyl-phenyl)sulfonyl-N3-(2,4,6-trimethylphenyl)-1,2,4-triazole-3,5-diamine] |  |  |  | None | 19.4 ± 3.67 nM
CC(=O)N1CCc2cc(S(=O)(=O)n3nc(Nc4ccc(Cl)cc4)nc3N)ccc21 [Compound 34, 1-[5-[[5-amino-3-(4-chloroanilino)-1,2,4-triazol-1-yl]sulfonyl]indolin-1-yl]ethanone] |  |  |  | None | 92.6 ± 15.5 nM
Nc1nc(Nc2ccc(Cl)cc2)nn1S(=O)(=O)CCN1C(=O)c2ccccc2C1=O [Compound 35, 2-[2-[[5-amino-3-(4-chloroanilino)-1,2,4-triazol-1-yl]sulfonyl]ethyl]isoindoline-1,3-dione] |  |  |  | None | 14.3 ± 7.27 nM
Cc1nc(C)c(S(=O)(=O)n2nc(Nc3ccc(Cl)cc3)nc2N)s1 [Compound 36, N3-(4-chlorophenyl)-1-(2,4-dimethylthiazol-5-yl)sulfonyl-1,2,4-triazole-3,5-diamine] |  |  | > 1000 nM | None | 44.1 ± 12.8 nM
